Laboratory results reported in patent publication EP2646421B1, “7-NITRO-5-PHENYL-1-(PYRROLIDIN-1-YLMETHYL)-1H-BENZO[E][1,4]DIAZEPIN-2(3H)-ONE AND OTHER BENZODIAZEPINE DERIVATIVES” (Pignataro, Giuseppe, priority 2010, dated 2012).
“Also recorded” adds a separate entry of the source.

Columns and labels:
NCX1 = molecular target: T1, NCX1 (Canis lupus familiaris, UniProt P23685); experiment: Patch-clamp electrophysiology (whole-cell NCX currents), BHK-NCX1 cells; assay type: cell-based; conditions: 10 nM, 10 minutes
T1 construct: expressed in transfected cells
T1 sequence (P23685 33-970): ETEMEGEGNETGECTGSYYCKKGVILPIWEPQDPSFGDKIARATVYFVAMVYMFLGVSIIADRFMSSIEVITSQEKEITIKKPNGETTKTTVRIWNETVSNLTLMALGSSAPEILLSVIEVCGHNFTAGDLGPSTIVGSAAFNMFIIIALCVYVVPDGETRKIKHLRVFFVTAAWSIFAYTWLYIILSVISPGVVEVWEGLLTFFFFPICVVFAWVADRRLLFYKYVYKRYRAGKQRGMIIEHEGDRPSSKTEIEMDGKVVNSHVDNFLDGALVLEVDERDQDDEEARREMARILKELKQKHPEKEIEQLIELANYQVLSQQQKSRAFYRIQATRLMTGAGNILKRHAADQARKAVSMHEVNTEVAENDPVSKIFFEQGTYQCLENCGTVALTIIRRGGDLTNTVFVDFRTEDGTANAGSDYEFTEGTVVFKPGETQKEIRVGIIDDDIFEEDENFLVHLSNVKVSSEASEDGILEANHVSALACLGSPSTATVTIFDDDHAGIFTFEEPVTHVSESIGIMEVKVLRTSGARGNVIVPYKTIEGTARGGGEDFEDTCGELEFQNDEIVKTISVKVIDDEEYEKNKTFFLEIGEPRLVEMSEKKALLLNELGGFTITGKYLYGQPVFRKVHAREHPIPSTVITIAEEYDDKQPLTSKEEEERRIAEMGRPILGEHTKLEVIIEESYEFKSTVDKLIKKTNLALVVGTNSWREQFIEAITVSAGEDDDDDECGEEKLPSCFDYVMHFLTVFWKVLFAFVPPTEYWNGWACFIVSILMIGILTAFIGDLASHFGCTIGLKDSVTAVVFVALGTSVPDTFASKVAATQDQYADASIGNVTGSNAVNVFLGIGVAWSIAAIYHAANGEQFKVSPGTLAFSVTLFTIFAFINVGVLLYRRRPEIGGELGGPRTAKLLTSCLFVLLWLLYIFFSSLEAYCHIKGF
Description: (§1) To further investigate the effects of this compound on the Na^+/Ca^2+ exchanger activity, we performed electrophysiological experiments on BHK cells stably transfected with each of NCX isoforms (named BHK-NCX1, BHK-NCX2 and BHK-NCX3).
(§2) The activity of NCX was established by means of three different subclones of baby hamsted kidney (BHK) cells that were stably transfected with one of each NCX isoforms, named BHK-NCX1, BHK-NCX2 and BHK-NCX3. These cell lines were grown on plastic dishes in a mix of DMEM and Ham's F12 media (1:1) (Gibco, Invitrogen, MI, Italy) supplemented with 5% fetal bovine serum, 100 U/ml penicillin, and 100 µg/ml streptomycin (Sigma, St. Louis, Missouri, USA). Cells were cultured in a humidified 5% CO2 atmosphere and at the temperature of 37°C.
(§3) NCX currents (/NCX) was recorded from BHK wild-type and BHK stably transfected cells with NCX1, NCX2, and NCX3 and all each mutated of single isoforrms by patch-clamp technique in whole-cell configuration. […] Data were acquired and analyzed by use of pClamp software (version 9.0, Molecular Devices). In brief, /NCX was recorded starting from a holding potential of -60 mV up to a short-step depolarization at +60 mV (60 ms) (He et al., 2003; Xiao et al., 2004). […] The current recorded in the descending portion of the ramp (from +60 to -120 mV) was used to plot the current-voltage (I-V) relation curve. […]

NCX2 = molecular target: T2, NCX2 (Rattus norvegicus, UniProt P48768); experiment: Patch-clamp electrophysiology (whole-cell NCX currents), BHK-NCX2 cells; assay type: cell-based; conditions: 10 nM, 10 minutes
T2 construct: expressed in transfected cells
T2 sequence (P48768 21-921): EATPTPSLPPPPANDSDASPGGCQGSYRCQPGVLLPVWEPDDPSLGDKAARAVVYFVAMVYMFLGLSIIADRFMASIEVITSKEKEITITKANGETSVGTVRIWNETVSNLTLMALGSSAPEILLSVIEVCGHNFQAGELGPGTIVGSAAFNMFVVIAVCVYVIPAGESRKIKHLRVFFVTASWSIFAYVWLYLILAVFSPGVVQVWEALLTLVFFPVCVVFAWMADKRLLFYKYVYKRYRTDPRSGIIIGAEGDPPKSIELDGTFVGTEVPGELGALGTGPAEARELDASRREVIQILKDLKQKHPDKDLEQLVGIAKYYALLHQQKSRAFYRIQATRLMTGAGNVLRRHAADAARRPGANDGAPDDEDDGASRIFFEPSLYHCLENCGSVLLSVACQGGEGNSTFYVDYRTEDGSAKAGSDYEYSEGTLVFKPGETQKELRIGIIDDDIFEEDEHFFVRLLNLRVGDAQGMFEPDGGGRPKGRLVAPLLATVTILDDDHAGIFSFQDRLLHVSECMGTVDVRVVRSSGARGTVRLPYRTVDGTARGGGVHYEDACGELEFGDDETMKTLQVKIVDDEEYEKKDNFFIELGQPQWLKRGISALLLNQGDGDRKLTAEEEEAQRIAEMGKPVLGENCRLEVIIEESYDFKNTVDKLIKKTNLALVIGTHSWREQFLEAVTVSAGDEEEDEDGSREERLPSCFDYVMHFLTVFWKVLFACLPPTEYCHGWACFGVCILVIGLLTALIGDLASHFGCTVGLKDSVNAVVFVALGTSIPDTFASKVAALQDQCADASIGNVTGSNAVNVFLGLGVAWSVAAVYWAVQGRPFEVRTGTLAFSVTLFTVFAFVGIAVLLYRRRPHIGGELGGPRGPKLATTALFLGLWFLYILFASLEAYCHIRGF
Description: as §1, §2, §3

BHK cells = experiment: Mitochondrial dehydrogenase activity (MTT); assay type: cell-based, hamster
[1] = tested on: ischemic volume after tMCAO; experiment: Transient middle cerebral artery occlusion (tMCAO) cerebral ischemia model; assay type: in vivo, mice
Text: For experimental stroke male wild-type C57BL of 2 months have been used. All mice were anesthetized with a gas containing 70 % N2O, 28% O2 e 2% sevoflurane).
Usually, after anesthesia an incision on the ventral neck is made and, under an operating stereo-microscope and with the help of microsurgery twizzers, the muscle is diverted until the common carotid artery (CCA). Then, through smoothly diversion, the CCA is isolated from the vague nerve and the jugulars vein. Analogously, the external carotid artery (ECA) and the internal carotid artery (ICA) are isolated as well.After the isolation of these vessels and the positioning of vascular microclips, a nylon filament (5-0, Ethilon, 11 mm length) is inserted into the internal carotid artery (ICA), at the level of bifurcation with the common carotid artery. The filament is pushed in cranial direction until is reached the bifurcation of the middle cerebral artery (MCA), whose flux is interrupted. After the insertion of the filament the wound is closed with a temporary suture and the mouse is let to awake. After 60 minutes the animal is re-anesthesized and the ischemia is interrupted through the filament rimotion from the vessel. The reduction in cerebral blood flow has been evaluated by means of a cerebral laser-Doppler system (Periflux, Sweden with software Perimed 1.30) that uses a probe fixed on the skull. The body temperature has been maintained constant by means of a homoeothermic blanket connected to a rectal probe. Few minutes after the end of the surgical procedure the mouse awakes and, on the nasis of the pain degree noticed, is decided for the administration of analgesic drugs. Neurounina-1 administration has been done intraperitoneally at different dosages, immediately before, 3 hours or 5 hours the ischemia onset. 24 hours after the surgical procedure, the animal is killed through cervical dislocation and the brain is removed from the skull and analyzed for the determination of the ischemic damage extension. In particular, by means of a vibratome, serial coronal brain sections of […] are obtained. These brain sections are treated with 2,3,5-triphenyl tetrazolium chloride (TTC), an organic compound that has the peculiarity of being oxidized and precipitated as formazan salt only from vital tissue. By contrast, the ischemic tissue, being not able to generate this reaction, remains white. […] The software used (Image Pro-plus 4.1) allows, then, to obtain the brain infarct volume from the value of the infarct areas obtained in close brain slices.Data obtained in this manner are then elaborated to obtain a percentage evaluation of the ischemic damage induced compared to the brain hemisphere […] to the ischemic lesion.

O=C1CN=C(c2ccccc2)c2cc([N+](=O)[O-])ccc2N1CN1CCCC1 [neurounina-1, 7-nitro-5-phenyl-1-(pyrrolidin-1-ylmethyl)-1H-benzo[e][1,4]diazepin-2(3H)-one]
increased forward and reverse activity of NCX1 (NCX1): 60% | increased forward and reverse activity of NCX2 (NCX2): 30% | non-toxic concentration relative to EC50 (BHK cells; 10 µM versus EC50): ~10.000 times | mitochondrial activity (BHK cells; 10 µM, 24 hours, BHK cells): did not show any toxic effect; also recorded: did not affect | ischemic damage ([1]; administered just before tMCAO induction, 3 ng/kg, intraperitoneal): significantly reduced ischemic damage | minimal dose with neuroprotective effect ([1]; five hours from tMCAO, intraperitoneal): 0.03 mg/kg | neuroprotective effect ([1]; intraperitoneally 3 hours after tMCAO, dose-range 3 ng/kg to 30 µg/kg): still present | ischemic volume ([1]; mice, intraperitoneal administration, tMCAO): decreased the ischemic volume
